Key:
[1] = biological target: Retinoic acid receptor RXR-alpha (Homo sapiens) (UniProt P19793); assay: Retinoid X Receptor RXRalpha Eurofins-Panlabs radioligand binding assay; settings: Compound concentration 10.0 uM
[2] = biological target: Serine/threonine-protein kinase B-raf (Homo sapiens) (UniProt P15056); assay: BRAF Kinase screen; settings: Compound concentration 1.0 uM
[3] = biological target: SRSF protein kinase 3 (Homo sapiens) (UniProt Q9UPE1); assay: STK23 (MSSK1) Kinase screen; settings: Compound concentration 1.0 uM
[4] = biological target: D(1A) dopamine receptor (Homo sapiens) (UniProt P21728); settings: Compound concentration 10.0 uM
Chain of D(1A) dopamine receptor (Homo sapiens) (P21728 whole entry): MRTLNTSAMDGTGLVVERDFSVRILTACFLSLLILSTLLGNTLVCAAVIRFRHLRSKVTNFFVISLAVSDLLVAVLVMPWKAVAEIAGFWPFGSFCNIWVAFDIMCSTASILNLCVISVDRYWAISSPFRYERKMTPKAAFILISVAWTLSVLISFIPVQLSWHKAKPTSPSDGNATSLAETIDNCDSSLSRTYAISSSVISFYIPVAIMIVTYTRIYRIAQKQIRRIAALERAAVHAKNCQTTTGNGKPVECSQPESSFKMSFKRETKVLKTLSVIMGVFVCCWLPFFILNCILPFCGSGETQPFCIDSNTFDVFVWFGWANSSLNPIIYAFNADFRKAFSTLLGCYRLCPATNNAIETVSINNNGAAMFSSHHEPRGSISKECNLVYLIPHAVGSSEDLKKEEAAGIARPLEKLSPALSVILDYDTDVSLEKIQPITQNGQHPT

[5] = Inhibition of Atrial Natriuretic Factor (ANF) at 10 µM in the Eurofins-Panlabs radioligand binding assay (Eurofins_assay_211000); settings: Cavia porcellus
[6] = biological target: Rho-associated protein kinase 1 (Homo sapiens) (UniProt Q13464); assay: ROCK1 Kinase screen; settings: Compound concentration 1.0 uM
[7] = biological target: T1, Ephrin type-B receptor 3 (Homo sapiens) (UniProt P54753); assay: EPHB3 Kinase screen; settings: Compound concentration 1.0 uM
T1 sequence (whole entry): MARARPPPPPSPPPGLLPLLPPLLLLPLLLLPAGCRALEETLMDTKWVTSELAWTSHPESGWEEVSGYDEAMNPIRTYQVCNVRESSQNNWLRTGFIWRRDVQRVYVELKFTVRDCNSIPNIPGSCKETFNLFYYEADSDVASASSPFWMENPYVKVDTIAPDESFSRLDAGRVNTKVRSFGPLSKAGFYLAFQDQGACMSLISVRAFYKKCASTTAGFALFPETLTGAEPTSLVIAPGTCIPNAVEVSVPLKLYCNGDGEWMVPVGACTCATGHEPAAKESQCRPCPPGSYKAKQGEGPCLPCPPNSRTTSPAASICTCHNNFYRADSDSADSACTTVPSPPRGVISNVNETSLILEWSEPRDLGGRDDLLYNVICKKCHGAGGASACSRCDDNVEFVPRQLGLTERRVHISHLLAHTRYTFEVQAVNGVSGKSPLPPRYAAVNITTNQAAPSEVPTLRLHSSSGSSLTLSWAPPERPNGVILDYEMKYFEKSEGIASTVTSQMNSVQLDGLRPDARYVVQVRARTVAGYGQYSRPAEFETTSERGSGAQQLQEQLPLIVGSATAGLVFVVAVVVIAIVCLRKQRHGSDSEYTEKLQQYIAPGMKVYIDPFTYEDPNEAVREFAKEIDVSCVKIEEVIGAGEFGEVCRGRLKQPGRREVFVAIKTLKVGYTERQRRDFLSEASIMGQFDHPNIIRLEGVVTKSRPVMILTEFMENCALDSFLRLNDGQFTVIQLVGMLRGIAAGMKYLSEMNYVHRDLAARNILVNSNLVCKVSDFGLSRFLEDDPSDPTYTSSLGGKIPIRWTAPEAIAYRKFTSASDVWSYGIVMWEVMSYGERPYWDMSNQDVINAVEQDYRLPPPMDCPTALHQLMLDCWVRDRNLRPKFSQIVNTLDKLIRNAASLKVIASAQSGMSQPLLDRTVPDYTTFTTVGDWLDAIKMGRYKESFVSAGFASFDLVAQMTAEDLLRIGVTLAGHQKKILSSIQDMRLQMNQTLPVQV

[8] = biological target: Tyrosine-protein kinase JAK1 (Homo sapiens) (UniProt P23458); assay: JAK1 Kinase screen; settings: Compound concentration 1.0 uM
[9] = biological target: Serine/threonine-protein kinase MRCK alpha (Homo sapiens) (UniProt Q5VT25); assay: CDC42 BPA (MRCKA) Kinase screen; settings: Compound concentration 1.0 uM
Chain of Serine/threonine-protein kinase MRCK alpha (Homo sapiens) (Q5VT25 whole entry): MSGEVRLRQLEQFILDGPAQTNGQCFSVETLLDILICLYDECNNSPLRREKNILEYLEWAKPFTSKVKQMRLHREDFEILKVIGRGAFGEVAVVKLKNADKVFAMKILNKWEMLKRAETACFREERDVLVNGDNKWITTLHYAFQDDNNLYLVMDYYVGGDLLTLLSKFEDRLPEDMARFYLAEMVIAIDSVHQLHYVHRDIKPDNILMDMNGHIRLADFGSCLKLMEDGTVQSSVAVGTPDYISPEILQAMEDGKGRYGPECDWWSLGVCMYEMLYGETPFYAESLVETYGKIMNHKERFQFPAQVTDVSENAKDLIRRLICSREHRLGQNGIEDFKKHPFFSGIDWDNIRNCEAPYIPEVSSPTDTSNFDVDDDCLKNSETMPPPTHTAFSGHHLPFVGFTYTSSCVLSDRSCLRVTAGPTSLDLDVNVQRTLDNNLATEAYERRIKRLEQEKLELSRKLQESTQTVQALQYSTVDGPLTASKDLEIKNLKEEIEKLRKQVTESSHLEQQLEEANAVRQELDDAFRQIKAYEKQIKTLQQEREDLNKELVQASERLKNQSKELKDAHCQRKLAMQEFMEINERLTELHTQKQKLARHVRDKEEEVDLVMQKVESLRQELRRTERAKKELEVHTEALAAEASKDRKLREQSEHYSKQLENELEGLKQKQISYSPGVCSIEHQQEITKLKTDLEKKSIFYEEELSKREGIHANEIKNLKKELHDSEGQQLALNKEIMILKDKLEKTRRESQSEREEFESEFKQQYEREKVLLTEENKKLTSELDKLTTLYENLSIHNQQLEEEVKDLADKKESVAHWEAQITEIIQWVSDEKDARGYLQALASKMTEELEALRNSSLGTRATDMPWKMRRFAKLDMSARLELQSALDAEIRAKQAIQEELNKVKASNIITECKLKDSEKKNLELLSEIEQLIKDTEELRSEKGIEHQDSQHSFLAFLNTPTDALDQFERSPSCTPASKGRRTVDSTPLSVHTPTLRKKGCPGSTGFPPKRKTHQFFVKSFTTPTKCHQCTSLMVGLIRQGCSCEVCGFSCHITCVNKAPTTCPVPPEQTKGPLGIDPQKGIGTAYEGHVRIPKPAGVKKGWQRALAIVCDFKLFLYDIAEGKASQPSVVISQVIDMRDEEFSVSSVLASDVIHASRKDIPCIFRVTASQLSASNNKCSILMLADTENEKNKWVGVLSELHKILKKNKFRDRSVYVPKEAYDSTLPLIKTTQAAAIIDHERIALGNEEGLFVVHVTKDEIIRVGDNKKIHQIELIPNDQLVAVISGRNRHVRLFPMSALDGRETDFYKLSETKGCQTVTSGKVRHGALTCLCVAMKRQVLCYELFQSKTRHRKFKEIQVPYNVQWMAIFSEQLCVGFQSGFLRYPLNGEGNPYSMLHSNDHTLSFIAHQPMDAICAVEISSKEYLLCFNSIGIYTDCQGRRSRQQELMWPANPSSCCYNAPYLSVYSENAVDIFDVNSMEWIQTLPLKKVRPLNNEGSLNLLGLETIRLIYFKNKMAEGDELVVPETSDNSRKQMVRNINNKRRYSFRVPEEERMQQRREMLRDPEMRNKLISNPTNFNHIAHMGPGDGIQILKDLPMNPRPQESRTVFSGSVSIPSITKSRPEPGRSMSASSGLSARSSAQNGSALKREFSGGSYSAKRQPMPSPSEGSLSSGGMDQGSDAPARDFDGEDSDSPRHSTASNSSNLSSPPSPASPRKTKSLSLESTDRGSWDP

[10] = biological target: T2, Dual specificity mitogen-activated protein kinase kinase 6 (Homo sapiens) (UniProt P52564); assay: MAP2K6 (MKK6) Kinase screen; settings: Compound concentration 1.0 uM
T2 sequence (whole entry): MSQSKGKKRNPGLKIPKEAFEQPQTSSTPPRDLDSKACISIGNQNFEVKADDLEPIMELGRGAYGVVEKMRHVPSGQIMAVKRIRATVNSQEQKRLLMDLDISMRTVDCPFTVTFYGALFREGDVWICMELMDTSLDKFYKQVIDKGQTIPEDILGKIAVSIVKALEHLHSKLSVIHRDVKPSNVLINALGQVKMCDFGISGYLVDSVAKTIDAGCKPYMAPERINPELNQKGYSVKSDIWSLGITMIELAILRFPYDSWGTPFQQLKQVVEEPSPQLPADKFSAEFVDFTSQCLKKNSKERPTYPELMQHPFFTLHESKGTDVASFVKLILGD

[11] = biological target: MAP kinase-activated protein kinase 3 (Homo sapiens) (UniProt Q16644); assay: MAPKAPK3 Kinase screen; settings: Compound concentration 1.0 uM
Chain of MAP kinase-activated protein kinase 3 (Homo sapiens) (Q16644 whole entry, looked up): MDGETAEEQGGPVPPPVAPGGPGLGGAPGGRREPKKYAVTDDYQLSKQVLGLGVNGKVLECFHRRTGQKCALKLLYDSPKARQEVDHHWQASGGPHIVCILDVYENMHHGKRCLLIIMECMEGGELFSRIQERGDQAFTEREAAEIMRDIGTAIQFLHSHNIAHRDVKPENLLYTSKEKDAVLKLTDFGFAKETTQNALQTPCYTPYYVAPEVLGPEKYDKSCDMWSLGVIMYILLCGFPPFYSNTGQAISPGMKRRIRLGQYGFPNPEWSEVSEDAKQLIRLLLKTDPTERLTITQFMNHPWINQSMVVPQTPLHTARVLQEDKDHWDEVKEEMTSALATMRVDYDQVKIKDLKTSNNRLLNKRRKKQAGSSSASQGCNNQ

[12] = biological target: T3, Protein kinase C epsilon type (Homo sapiens) (UniProt Q02156); assay: PRKCE (PKC epsilon) Kinase screen; settings: Compound concentration 1.0 uM
T3 sequence (whole entry): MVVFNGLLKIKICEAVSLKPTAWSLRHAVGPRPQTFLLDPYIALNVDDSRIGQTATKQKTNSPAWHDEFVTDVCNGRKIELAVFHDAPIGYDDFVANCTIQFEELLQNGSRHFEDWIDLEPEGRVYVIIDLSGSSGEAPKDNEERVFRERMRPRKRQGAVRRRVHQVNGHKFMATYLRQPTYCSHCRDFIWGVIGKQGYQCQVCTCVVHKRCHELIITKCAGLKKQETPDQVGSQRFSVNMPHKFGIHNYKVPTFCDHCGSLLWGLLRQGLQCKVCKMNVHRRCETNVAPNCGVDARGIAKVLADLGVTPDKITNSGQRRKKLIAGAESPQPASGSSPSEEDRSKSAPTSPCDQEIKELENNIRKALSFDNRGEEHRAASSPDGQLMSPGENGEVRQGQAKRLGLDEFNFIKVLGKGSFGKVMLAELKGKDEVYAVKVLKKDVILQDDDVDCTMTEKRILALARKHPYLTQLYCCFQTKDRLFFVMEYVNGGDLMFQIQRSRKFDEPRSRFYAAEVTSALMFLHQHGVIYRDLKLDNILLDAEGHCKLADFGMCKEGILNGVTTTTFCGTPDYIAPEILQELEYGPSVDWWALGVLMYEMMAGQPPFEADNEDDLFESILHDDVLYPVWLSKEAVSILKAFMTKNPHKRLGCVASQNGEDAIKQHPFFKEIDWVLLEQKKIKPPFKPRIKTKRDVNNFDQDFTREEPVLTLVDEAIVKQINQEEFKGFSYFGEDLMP

[13] = biological target: Glutamate receptor 2 (Homo sapiens) (UniProt P42262); settings: Rattus norvegicus; Compound concentration 10.0 uM
Chain of Glutamate receptor 2 (Homo sapiens) (P42262 whole entry): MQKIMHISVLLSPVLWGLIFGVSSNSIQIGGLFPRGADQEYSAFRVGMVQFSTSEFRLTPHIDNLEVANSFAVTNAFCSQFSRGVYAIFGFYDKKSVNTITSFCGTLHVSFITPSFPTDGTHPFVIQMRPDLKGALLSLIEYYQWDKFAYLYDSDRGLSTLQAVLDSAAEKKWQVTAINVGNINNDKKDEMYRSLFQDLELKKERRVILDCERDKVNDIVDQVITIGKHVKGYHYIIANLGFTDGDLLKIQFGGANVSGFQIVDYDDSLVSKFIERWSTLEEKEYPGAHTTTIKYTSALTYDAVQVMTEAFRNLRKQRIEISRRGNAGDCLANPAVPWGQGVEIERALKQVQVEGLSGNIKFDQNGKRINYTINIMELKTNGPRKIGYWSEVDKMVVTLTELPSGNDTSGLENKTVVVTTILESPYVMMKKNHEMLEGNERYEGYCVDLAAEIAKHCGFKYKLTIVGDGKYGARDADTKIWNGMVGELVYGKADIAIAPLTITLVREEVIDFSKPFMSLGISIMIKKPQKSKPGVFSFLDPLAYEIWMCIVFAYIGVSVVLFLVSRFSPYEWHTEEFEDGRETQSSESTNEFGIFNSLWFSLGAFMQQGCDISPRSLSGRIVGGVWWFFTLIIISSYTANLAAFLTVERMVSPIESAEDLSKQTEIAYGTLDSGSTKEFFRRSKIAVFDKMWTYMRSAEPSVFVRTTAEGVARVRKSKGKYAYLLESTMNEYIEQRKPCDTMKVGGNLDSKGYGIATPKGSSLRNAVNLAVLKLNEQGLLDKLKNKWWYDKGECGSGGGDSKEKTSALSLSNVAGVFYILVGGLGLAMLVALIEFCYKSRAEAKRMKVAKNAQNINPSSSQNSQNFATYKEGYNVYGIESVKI

Chain of Retinoic acid receptor RXR-alpha (Homo sapiens) (P19793 whole entry): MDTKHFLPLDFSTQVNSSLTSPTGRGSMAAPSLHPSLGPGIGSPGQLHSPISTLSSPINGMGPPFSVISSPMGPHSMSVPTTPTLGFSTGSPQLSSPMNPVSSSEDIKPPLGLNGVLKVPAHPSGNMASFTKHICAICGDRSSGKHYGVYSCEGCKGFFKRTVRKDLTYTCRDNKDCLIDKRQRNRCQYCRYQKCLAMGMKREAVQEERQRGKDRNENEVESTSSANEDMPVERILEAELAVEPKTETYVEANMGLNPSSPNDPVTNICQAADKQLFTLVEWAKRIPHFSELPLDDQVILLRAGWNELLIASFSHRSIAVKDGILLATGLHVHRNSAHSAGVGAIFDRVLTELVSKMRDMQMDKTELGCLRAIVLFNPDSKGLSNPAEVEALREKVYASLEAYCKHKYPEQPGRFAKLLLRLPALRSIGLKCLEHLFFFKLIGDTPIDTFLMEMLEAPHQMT
Chain of Serine/threonine-protein kinase B-raf (Homo sapiens) (P15056 whole entry): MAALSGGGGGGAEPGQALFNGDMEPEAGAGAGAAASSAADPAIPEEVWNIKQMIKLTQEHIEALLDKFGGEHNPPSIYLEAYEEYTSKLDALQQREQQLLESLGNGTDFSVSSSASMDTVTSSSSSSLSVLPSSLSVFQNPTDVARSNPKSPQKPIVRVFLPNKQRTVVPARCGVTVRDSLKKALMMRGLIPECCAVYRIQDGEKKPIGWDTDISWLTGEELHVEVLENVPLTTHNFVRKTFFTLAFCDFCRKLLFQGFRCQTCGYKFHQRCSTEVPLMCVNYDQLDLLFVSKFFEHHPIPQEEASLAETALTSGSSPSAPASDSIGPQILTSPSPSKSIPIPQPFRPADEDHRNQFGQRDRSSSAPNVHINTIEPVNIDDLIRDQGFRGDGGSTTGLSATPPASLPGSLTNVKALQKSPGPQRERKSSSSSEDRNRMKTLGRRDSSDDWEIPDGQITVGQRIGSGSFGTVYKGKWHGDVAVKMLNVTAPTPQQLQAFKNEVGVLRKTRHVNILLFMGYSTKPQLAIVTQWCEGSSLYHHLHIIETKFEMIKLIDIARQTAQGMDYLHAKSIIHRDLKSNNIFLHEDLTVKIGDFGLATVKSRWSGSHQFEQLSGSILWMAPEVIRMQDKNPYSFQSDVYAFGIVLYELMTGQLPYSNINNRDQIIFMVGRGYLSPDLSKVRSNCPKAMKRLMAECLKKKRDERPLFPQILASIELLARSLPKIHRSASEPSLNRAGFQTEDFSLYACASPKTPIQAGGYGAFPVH

## C[C@@H]1CN(c2cc(-c3n[nH]c4ccc(OC5(C)CC5)cc34)ncn2)C[C@H](C)O1 [MLi-2]
[1]
  inhibition: 4%
[2]
  inhibition: 27.1%
[3]
  inhibition: 11.9%
[4]
  inhibition: 12%
[5]
  inhibition at 10 µM: -2% (not active)
[6]
  inhibition: -0.899%
[7]
  inhibition: 9.87%
[8]
  inhibition: -2.46%
[9]
  inhibition: 2.46%
[10]
  inhibition: -2.67%
[11]
  inhibition: 3.73%
[12]
  inhibition: 4.4%
[13]
  inhibition: -2%
